We go through 57 compounds from the PolyMetriX glass transition set.

Each structure is given as a SMILES string.

`*/C(C)=C(/*)CCC` (repeat unit) gave a glass transition temperature of 200.00 °C.
As for `*/C=C(\C#N)C(=O)OCCCCCCOC(=O)/C(C#N)=C/c1ccc2c(c1)c1cc(*)ccc1n2CCCCCCCCCCCOc1ccc(/C=C/c2ccc([N+](=O)[O-])cc2)cc1` (repeat unit), the figure is 87.00 °C; as for `*=NP(=NP(=NC(=*)Oc1ccc(Br)cc1)(Oc1ccc(Br)cc1)Oc1ccc(Br)cc1)(Oc1ccc(Br)cc1)Oc1ccc(Br)cc1` (repeat unit), 45.00 °C; as for `*CC(*)(C#N)C(=O)OC` (repeat unit), 147.50 °C.
The value for `*CC(*)(C#N)C(=O)OCCCC` (repeat unit) was 117.00 °C; that for `*CC(*)(C(=O)OC)c1ccccc1` (repeat unit) was 121.00 °C.
`*CC(*)(C)C(=O)NC(=O)Oc1ccc(S(=O)(=O)c2ccc(O)cc2)cc1` (repeat unit) showed a glass transition temperature of 182.00 °C.
As for `*CC(*)(C)C(=O)NC1C(O)OC(CO)C(O)C1O` (repeat unit), the figure is 90.50 °C; as for `*CC(*)(C)C(=O)Nc1cccc(-c2nnc(-c3ccccc3)o2)c1` (repeat unit), 65.00 °C; as for `*CC(*)(C)C(=O)OC(C)C(C)(C)C` (repeat unit), 108.00 °C.
`*CC(*)(C)C(=O)OC(COc1cc2ccccc2c2ccccc12)COc1cc2ccccc2c2ccccc12` (repeat unit) showed a glass transition temperature of 112.00 °C.
As for `*CC(*)(C)C(=O)OC(COc1ccc(-c2ccccc2)cc1)COc1ccc(-c2ccccc2)cc1` (repeat unit), the figure is 85.00 °C; as for `*CC(*)(C)C(=O)OC(OCC)C(F)(F)F` (repeat unit), 60.00 °C.
As for `*CC(C)(C)C1C(=O)N(c2c(C)cccc2C)C(=O)C1*` (repeat unit), the figure is 237.00 °C; as for `*CC(C)(C)C1C(=O)N(c2ccccc2C)C(=O)C1*` (repeat unit), 207.00 °C; as for `*CC(CC(C)C)S(*)(=O)=O` (repeat unit), 23.00 °C.
Consider `*CC(CC(Cl)(Cl)Cl)O*` (repeat unit), for which the glass transition temperature was -36.00 °C.
The value for `*CC(CC)N(*)C(=O)CCCC` (repeat unit) was 52.00 °C.
The value for `*CC(CC)O*` (repeat unit) was -71.50 °C; that for `*CC(CC)S*` (repeat unit) was -47.00 °C; that for `*CC(CCCCCC)O*` (repeat unit) was -67.00 °C.
The value for `*CC(COC(=O)CCCCCCCCCCN1C(=O)C2C3C=CC(C3)C2C1=O)O*` (repeat unit) was -31.00 °C.
With `*CC(COC(F)(C(F)(F)F)C(F)(F)F)O*` (repeat unit), the glass transition temperature was -43.00 °C.
On to `*CC(COCC)O*` (repeat unit), for which the glass transition temperature was -61.00 °C.
The value for `*CC(COCCCC)O*` (repeat unit) was -79.00 °C; that for `*CC(COc1ccc(-c2ccc(C#N)cc2)cc1)O*` (repeat unit) was 94.2 °C; that for `*CC(CS(=O)(=O)C(C)C)O*` (repeat unit) was 64.00 °C.
The value for `*CC(CS(=O)(=O)CCCCC)O*` (repeat unit) was 39.00 °C.
The value for `*CC(CS(C)(=O)=O)O*` (repeat unit) was 85.00 °C; that for `*CC(C[N-][N+]#N)O*` (repeat unit) was -35.00 °C; that for `*CC(C[Si](*)(C)C)c1cccc2ccccc12` (repeat unit) was 39.00 °C.
In turn, `*CC(Cc1cccc2ccccc12)C[Si](*)(C)C` (repeat unit) showed a glass transition temperature of 17.00 °C.
The value for `*CC(F)(F)C1(F)C(*)CC(O)(C(F)(F)F)C1(F)F` (repeat unit) was 152.00 °C.
As for `*CC(F)(F)CC(*)(C(F)(F)F)C(F)(F)F` (repeat unit), the figure is 132.00 °C; as for `*CC(O)C(O)CN(*)c1ccc(N(C)C)cc1` (repeat unit), 72.00 °C; as for `*CC(O)CN(C)S(=O)(=O)c1cccc(S(=O)(=O)N(C)CC(O)COc2ccc(-c3ccc(O*)cc3)cc2)c1` (repeat unit), 58.00 °C.
As for `*CC(O)CN(C)S(=O)(=O)c1cccc(S(=O)(=O)N(C)CC(O)COc2ccc(C3(c4ccc(O*)cc4)c4ccccc4-c4ccccc43)cc2)c1` (repeat unit), the figure is 127.00 °C; as for `*CC(O)CN(CC(O)CN(*)c1ccccc1)c1ccc(/N=N/c2ccc([N+](=O)[O-])cc2)cc1` (repeat unit), 70.00 °C.
As to `*CC(O*)C1CC(F)(F)C1(F)F` (repeat unit), the glass transition temperature was -25.00 °C.
The value for `*CC(O*)c1ccco1` (repeat unit) was 12.50 °C; that for `*CC(OCC(C)C)C(C(=O)OC)C(*)C(=O)OC` (repeat unit) was 44.50 °C.
As for `*CC(OCC(C)C)C(C)(C(=O)OC)C(*)(C)C(=O)OC` (repeat unit), the glass transition temperature turned out to be 125.50 °C.
The value for `*CC(OCCCC)C(C(=O)OC)C(*)C(=O)OC` (repeat unit) was 32.50 °C.
The value for `*CC(OCCCC)C(C)(C(=O)OC)C(*)(C)C(=O)OC` (repeat unit) was 97.50 °C.
As for `*CC(S*)c1ccccc1` (repeat unit), the figure is -2.50 °C; as for `*CCCCCCCCCCn1c2ccccc2c2cc(/C=C(\C#N)C(=O)OCCCCCCOC(=O)/C(C#N)=C/c3ccc4c(c3)c3ccccc3n4*)ccc21` (repeat unit), 94.50 °C.
`*CCCCCCNC(=O)C(CC)CC(CC)C(=O)N*` (repeat unit): the glass transition temperature was found to be 94.00 °C.
As for `*CCCCNC(=O)CC(=O)N*` (repeat unit), the figure is 73.00 °C; as for `*CCCCOC(=O)Nc1ccc(Cc2ccc(NC(=O)OCCCCn3c4ccccc4c4cc(/C=C(\C#N)C(=O)OCCCCCCOC(=O)/C(C#N)=C/c5ccc6c(c5)c5ccccc5n6*)ccc43)cc2)cc1` (repeat unit), 122.00 °C; as for `*CCOCCOC(=O)CC(=O)O*` (repeat unit), -41.50 °C.
As for `*Nc1ccc(-c2ccc(NC(=O)Cc3cc(C)c(CC(*)=O)cc3C)cc2)cc1` (repeat unit), the figure is 171.00 °C.
As for `*Nc1ccc(NC(=O)Cc2cc(CC(*)=O)c(C)cc2C)cc1` (repeat unit), the figure is 208.00 °C; as for `*Nc1cccc(NC(=O)Cc2cc(C)c(CC(*)=O)cc2C)c1` (repeat unit), 249.00 °C; as for `*OC(CC(*)=O)C(C)(Cl)Cl` (repeat unit), 109.00 °C.
In the case of `*OC(CC)CC(*)=O` (repeat unit), the glass transition temperature is -15.40 °C.
As for `*OC(CCOc1ccccc1)CC(*)=O` (repeat unit), the figure is 20.00 °C; as for `*OC(COc1ccccc1)CC(*)=O` (repeat unit), 20.00 °C.
